The test addresses T1, Des1 (Homo sapiens, UniProt O15121).
T1 sequence (O15121 1-323): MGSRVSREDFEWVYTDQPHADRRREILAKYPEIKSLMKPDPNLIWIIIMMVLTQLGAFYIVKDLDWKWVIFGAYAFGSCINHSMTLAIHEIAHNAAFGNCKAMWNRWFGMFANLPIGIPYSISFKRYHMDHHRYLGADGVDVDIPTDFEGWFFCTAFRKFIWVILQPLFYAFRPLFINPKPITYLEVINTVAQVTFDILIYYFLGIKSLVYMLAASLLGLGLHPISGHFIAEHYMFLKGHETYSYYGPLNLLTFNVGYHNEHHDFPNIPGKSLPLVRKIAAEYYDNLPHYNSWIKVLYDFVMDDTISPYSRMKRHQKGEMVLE
Briefly: Jurkat T cell measurement of conversion of dihydroceramide to ceramide (Des1 activity, LC-MS/MS of NBD-C6-ceramide). It is filed as cell-based. The settings on record: Jurkat clone E6-1 cells, 10 μM NBD-C6-dihydroceramide, 3 hours at 37° C.; for inhibition at 0.5 µM: 0.5 uM compound, read-out: Des1 % Inhib (0.5 uM); for IC50: read-out: Des1 IC50. On the set-up: endogenous in cells; host or cells: Jurkat clone E6-1. As for the experimental part:
Jurkat T Cell Measurement of Conversion of Dihydroceramide to Ceramide
Jurkat clone E6-1 cells were grown and then seeded at 10^6 cells/mL in a 96-well plate (400 μL in each well. The cells were administered 100 μL of cell culture media containing 50-μM NBD-C6-dihydroceramide (Des1 substrate), affording a final concentration of substrate of 10 μM. The cells were incubated with substrate at 4° C. for 30 minutes. Following the incubation at 4° C., the cell suspension was centrifuged at 1200 rpm for 3 minutes, and the cell pellet is resuspended in 400 μL of fresh media containing various concentrations of either fenretinide (known Des1 inhibitor control compound) or test article. The final concentrations of control compound and test compounds were tested in a range from 0-10 μM. The cells and compounds were incubated at 37° C. for 3 hours. Following the 3-hour incubation, the plate was centrifuged at 2500 g for 3 minutes at 4° C., followed by collection and transfer of 200 μL of the supernatant to a new 96-well plate with 300 μL of methanol an containing appropriate internal standards for liquid chromatography/tandem mass spectroscopy (LC/MS/MS) analysis (internal standard: 500 nM labetalol and 100 nM alprazolam). The samples were vortexed for 2 minutes followed by centrifugation at 3,220 g for 20 minutes. Following centrifugation, 200 μL of the supernatant was transferred to a new 96-well plate for LC-MS/MS analysis to determine the amount of NBD-C6-ceramide (Des1 product) produced. The assay was typically performed in duplicate. A reduction of at least 30% compared to vehicle control (0 μM test article) is indicative of an active compound, and a reduction of 75% compared to vehicle control is preferred.

Results on 35 compounds are retold here after patent US12247019B2 (Centaurus Therapeutics, priority 2018, dated 2025).

As for `O=C(Nc1ccc(O)cn1)N1CCCCC1` [Example 10, N-(5-Hydroxypyridin-2-yl)piperidine-1-carboxamide], the inhibition at 0.5 µM was 15%.

For the compound `N#Cc1ccc(N2CCN(C(=O)Nc3ccc(O)cn3)CC2)nc1` [Example 34, 4-(5-cyanopyridin-2-yl)-N-(5-hydroxypyridin-2-yl)piperazine-1-carboxamide], the inhibition at 0.5 µM worked out at 85.4%.

With `O=C(Nc1ccc(O)cn1)N1CCCN(c2ccc(Cl)cn2)CC1` [Example 85, 4-(5-chloropyridin-2-yl)-N-(5-hydroxypyridin-2-yl)-1,4-diazepane-1-carboxamide], the concentration for half-maximal inhibition (IC50) came out at 55 nM.

As for `O=C(Nc1ccc(O)cn1)NC1CCN(c2ccc(F)cn2)CC1` [Example 49, 1-[1-(5-fluoropyridin-2-yl)piperidin-4-yl]-3-(5-hydroxypyridin-2-yl)urea], the IC50 was determined as 130 nM.

In the case of `O=C(Nc1ccc(O)cn1)N1CCN(c2ccc(F)nc2)CC1` [Example 50, 4-(6-fluoropyridin-3-yl)-N-(5-hydroxypyridin-2-yl) piperazine-1-carboxamide], the inhibition at 0.5 µM was 83%.

Take `O=S(=O)(Nc1ccc(O)cn1)C1CCN(c2ccc(Cl)cc2)CC1` [Example 68, 1-(4-chlorophenyl)-N-(5-hydroxypyridin-2-yl)piperidine-4-sulfonamide]: the inhibition at 0.5 µM was found to be 92.4% and the IC50 is 85 nM.

Turning to `O=C(Nc1ccc(O)cn1)N1CCCN(c2ccc(F)c(F)c2)CC1` [Example 87, 4-(3,4-difluorophenyl)-N-(5-hydroxypyridin-2-yl)-1,4-diazepane-1-carboxamide], the inhibition at 0.5 µM amounted to 92.7% and the IC50 worked out at 21 nM.

For `O=C(Nc1ccc(O)cn1)N1CCN(c2cccc(F)n2)CC1` [Example 35, 4-(6-fluoropyridin-2-yl)-N-(5-hydroxypyridin-2-yl)piperazine-1-carboxamide], the inhibition at 0.5 µM was found to be 91.3% and the half-maximal inhibitory concentration (IC50) came to 3 nM.

In the case of `O=C(Nc1ccc(O)cn1)N1CCC(c2ccccc2)CC1` [Example 1, N-(5-Hydroxypyridin-2-yl)-4-phenylpiperidine-1-carboxamide], the inhibition at 0.5 µM was 89.6% and the IC50 stood at 42 nM.

For the compound `O=S(=O)(Nc1ccc(O)cn1)C1CCN(c2ccc(Cl)cn2)CC1` [Example 67, 1-(5-chloropyridin-2-yl)-N-(5-hydroxypyridin-2-yl)piperidine-4-sulfonamide], the inhibition at 0.5 µM was 85.3%.

For the compound `O=C(Nc1ccc(O)cn1)NC1CCCN(c2ccc(Cl)cc2)C1` (stereo not drawn) [Example 48, 1-[1-(4-chlorophenyl)piperidin-3-yl]-3-(5-hydroxypyridin-2-yl)urea], the inhibition at 0.5 µM amounted to 39.8%.

Consider `O=C(Nc1ccc(O)cn1)N1CCC(c2ccc(F)cc2)CC1` [Example 2, N-[5-[Hydroxy]pyridin-2-yl]-4-(4-fluorophenyl)piperidine-1-carboxamide], for which the inhibition at 0.5 µM turned out to be 91.7% and the IC50 turned out to be 25 nM.

For the compound `COc1ccc(C2CCN(C(=O)Nc3ccc(O)cn3)CC2)cc1` [Example 6, N-(5-Hydroxypyridin-2-yl)-4-(4-methoxyphenyl)piperidine-1-carboxamide], the inhibition at 0.5 µM stood at 81.8% and the IC50 was 69 nM.

Turning to `CCCCCCOC(=O)Nc1ccc(O)cn1` [Example 41, Hexyl N-(5-hydroxypyridin-2-yl)carbamate], the inhibition at 0.5 µM amounted to 95.1% and the IC50 came to 13 nM.

For the compound `O=C(Nc1ccc(O)cn1)N1CCCN(c2ccc(F)cn2)CC1` [Example 84, 4-(5-fluoropyridin-2-yl)-N-(5-hydroxypyridin-2-yl)-1,4-diazepane-1-carboxamide], the IC50 stood at 100 nM.

With `O=C(Nc1ccc(O)cn1)N1CCN(c2ccc(C(F)(F)F)cc2)CC1` [Example 14, N-(5-Hydroxypyridin-2-yl)-4-[4-(trifluoromethyl)phenyl]piperazine-1-carboxamide], the inhibition at 0.5 µM stood at 95.9% and the IC50 came out at 3 nM.

Turning to `O=C(Nc1ccc(O)cn1)OC1CCN(c2ccccc2)CC1` [Example 44, 1-Phenylpiperidin-4-yl N-(5-hydroxypyridin-2-yl)carbamate], the inhibition at 0.5 µM was found to be 95% and the IC50 turned out to be 8 nM.

Take `O=C(Nc1ccc(O)cn1)N1CCC(c2cccc(Cl)c2)CC1` [Example 7]: the inhibition at 0.5 µM is 94% and the IC50 was found to be 26 nM.

`O=S(=O)(Nc1ccc(O)cn1)C1CCN(c2ccc(F)cc2)CC1` [Example 66, 1-(4-fluorophenyl)-N-(5-hydroxypyridin-2-yl)piperidine-4-sulfonamide]: the inhibition at 0.5 µM stood at 72.1%.

Take `O=C(Nc1ccc(O)cc1)N1CCN(c2ccc(F)cc2)CC1` [Example 29, 4-(4-fluorophenyl)-N-(4-hydroxyphenyl)piperazine-1-carboxamide]: the inhibition at 0.5 µM came out at 58.6%.

For `O=C(Nc1ccc(O)cn1)N1CCN(c2ncccn2)CC1` [Example 16, N-(5-hydroxypyridin-2-yl)-4-(pyrimidin-2-yl)piperazine-1-carboxamide], the inhibition at 0.5 µM worked out at 31.4%.

Turning to `Cn1ncc2c(N3CCN(C(=O)Nc4ccc(O)cn4)CC3)cccc21` [Example 81, N-(5-hydroxypyridin-2-yl)-4-(1-methyl-1H-indazol-4-yl)piperazine-1-carboxamide], the inhibition at 0.5 µM stood at 77.9%.

In the case of `O=C(Nc1ccc(O)cn1)N1CCN(c2ccc(F)cc2)CC1` [Example 5, 4-(4-Fluorophenyl)-N-(5-hydroxypyridin-2-yl)piperazine-1-carboxamide], the inhibition at 0.5 µM was found to be 91.5% and the IC50 was in the range of 32 to 51 nM.

As to `O=C(Nc1ccc(O)cn1)c1cccc(-c2ccccc2)c1` [Example 89, N-(5-hydroxypyridin-2-yl)-[1,1-biphenyl]-3-carboxamide], the inhibition at 0.5 µM turned out to be 93% and the IC50 was determined as 2.9 nM.

For `O=C(Nc1ccc(O)cn1)N1CCN(Cc2ccc(F)cc2)CC1` [Example 38, 4-[(4-Fluorophenyl)methyl]-N-(5-hydroxypyridin-2-yl)piperazine-1-carboxamide], the inhibition at 0.5 µM is 91.5% and the concentration for half-maximal inhibition (IC50) was 60 nM.

`O=C(Nc1ccc(O)cc1)N1CCN(c2ccc(C(F)(F)F)cn2)CC1` [Example 31, N-(4-hydroxyphenyl)-4-[5-(trifluoromethyl)pyridin-2-yl]piperazine-1-carboxamide]: the 50% inhibitory concentration (IC50) is 340 nM.

Take `COc1ccc(N2CCN(C(=O)Nc3ccc(O)cn3)CC2)cc1` [Example 15, N-(5-hydroxypyridin-2-yl)-4-(4-methoxyphenyl)piperazine-1-carboxamide]: the inhibition at 0.5 µM stood at 81.8% and the IC50 worked out at 110 nM.

Regarding `O=C(Nc1ccc(O)cn1)OC1CCN(c2ccc(C(F)(F)F)cc2)CC1` [Example 57, 1-[4-(trifluoromethyl)phenyl] piperidin-4-yl N-(5-hydroxypyridin-2-yl) carbamate], the inhibition at 0.5 µM worked out at 95.5% and the IC50 worked out at 1 nM.

`Cn1ncc2ccc(N3CCN(C(=O)Nc4ccc(O)cn4)CC3)cc21` [Example 82, N-(5-hydroxypyridin-2-yl)-4-(1-methyl-1H-indazol-6-yl)piperazine-1-carboxamide]: the inhibition at 0.5 µM turned out to be 78.4%.

Take `O=C(NCc1ccc(Cl)cc1)Nc1ccc(O)cn1` [Example 76, 1-[(4-chlorophenyl)methyl]-3-(5-hydroxypyridin-2-yl)urea]: the inhibition at 0.5 µM worked out at 75.1%.

In the case of `O=C(Nc1ccc(O)cn1)NC1CCCCC1` [Example 21, 1-cyclohexyl-3-(5-hydroxypyridin-2-yl)urea], the inhibition at 0.5 µM worked out at 69.3%.

Turning to `O=C(Nc1ccc(O)cn1)N1CCN(c2cc(F)cc(F)c2)CC1` [Example 26, 4-(3,5-difluorophenyl)-N-(5-hydroxypyridin-2-yl)piperazine-1-carboxamide], the IC50 turned out to be 12 nM.

As to `O=C(Nc1ccc(O)cn1)N1CCN(c2nc(F)c(F)cc2F)CC1` [Example 83, N-(5-hydroxypyridin-2-yl)-4-(3,5,6-trifluoropyridin-2-yl) piperazine-1-carboxamide], the inhibition at 0.5 µM was found to be 94.9% and the IC50 is 65 nM.

Turning to `O=S(=O)(Nc1ccc(O)cn1)C1CCN(Cc2ccccc2)CC1` [Example 65, 1-benzyl-N-(5-hydroxypyridin-2-yl)piperidine-4-sulfonamide], the IC50 was over 1000 nM.

Regarding `O=C(Nc1ccc(O)cn1)NC1CCCN(c2ccc(F)cc2)C1` (stereo not drawn) [Example 47, 1-[1-(4-fluorophenyl)piperidin-3-yl]-3-(5-hydroxypyridin-2-yl)urea], the inhibition at 0.5 µM was 51.8%.

The term IC50 denotes the concentration at which inhibition is half-maximal.
